Data: patent US20250332300A1 (priority 2024, published 2025)
Where a name gives a salt, the structure may show the parent alone. Read-outs that look alike come from different tables or passages of the source. Positions of bridges follow the written chain, without caps; N, C: chain ends. Non-standard residues stand in square brackets, D forms with d. Residues, ends and D or L forms follow the SMILES beside them. Trp(5-OH) = N[C@@H](Cc1c[nH]c2ccc(O)cc12)C(=O)O; NMePhe(4-F) = CN[C@@H](Cc1ccc(F)cc1)C(=O)O; NMehPhe = CN[C@@H](CCc1ccccc1)C(=O)O; Aad = N[C@@H](CCCC(=O)O)C(=O)O; Gly(cPr) = N[C@H](C(=O)O)C1CC1; NMehCys = CN[C@@H](CCS)C(=O)O; NMeDab = CN[C@@H](CCN)C(=O)O; NMeK = CN[C@@H](CCCCN)C(=O)O; NMeDap = CN[C@@H](CN)C(=O)O; NMeS = CN[C@@H](CO)C(=O)O

What was measured:
Type in all cases: binding
mouse HER2 (23-653) [1] = target: T1, mouse HER2 (23-653) (Mus musculus, UniProt P70424); experiment: Surface plasmon resonance (SPR) for assessment of peptide affinity, mouse HER2; design: mouse HER2 (23-653) using a Cy5 labeled peptide as a probe; made in house; details: SPR, mouse HER2 extracellular domain, 25° C., 1:1 binding model; read-out: moHER2-SPR-ONC KD
Text: Each protein was immobilized either onto a SA sensorchip (Cytiva, BR-1005-31) or CM5 sensorchip (Cytiva, BR-1005-30) to a density of 800-2000 RU.

mouse HER2 (23-653) [2] = target: T1, mouse HER2 (23-653); experiment: TR-FRET competition assay for peptide potency, mouse HER2; design: mouse HER2 (23-653) using a Cy5 labeled peptide as a probe; made in house; host or cells: mammalian cells
human HER2 (23-652) [3] = target: T2, human HER2 (23-652) (Homo sapiens, UniProt P04626); experiment: Surface plasmon resonance (SPR) for assessment of peptide affinity, human HER2; design: towards human HER2 (23-652) and mouse HER2 (23-653); made in house; details: SPR, human HER2 extracellular domain, 25° C., 1:1 binding model; read-out: huHER2-SPR-ONC KD
How it was run: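 Binding kinetics fitted from sensorgrams with 280 s peptide association then 3000 s dissociation (30 uL/min), using HER2 (23-652) either directly immobilized (SA/CM5) or anti-Fc-captured; 3 M magnesium chloride used for regeneration.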

human HER2 (23-652) [4] = target: T2, human HER2 (23-652); experiment: TR-FRET competition assay for peptide potency, human HER2; design: towards human HER2 (23-652) and mouse HER2 (23-653); made in house; host or cells: mammalian cells
[5] = TR-FRET competition with Cy5 labeled peptide probe, 0.1 nM mouse HER2, 24 h incubation, read-out: moHER2 TR-FRET IC50
[6] = value in parentheses (**): recalculated after further repetition, read-out: moHER2 TR-FRET IC50, recalculated value achieved after further repetition

Row | Kd (mouse HER2 (23-653) [1]) | IC50 (mouse HER2 (23-653) [2]; [5]) | IC50 (mouse HER2 (23-653) [2]; [6]) | Kd (human HER2 (23-652) [3]) | IC50 (human HER2 (23-652) [4]; TR-FRET competition with Cy5 labeled peptide probe, 0.1 nM human HER2, 24 h incubation, read-out: huHER2 TR-FRET IC50) | IC50 (human HER2 (23-652) [4]; read-out: huHER2 TR-FRET IC50) | IC50 (human HER2 (23-652) [4]; value in parentheses (**): recalculated after further repetition, read-out: huHER2 TR-FRET IC50, recalculated value achieved after further repetition) | Compound
1 | 39 nM | 76 nM | 49 nM | 47 nM | 62 nM | – | – | CC(=O)NCCCC[C@H]1C(=O)N[C@@H](Cc2c[nH]c3ccc(O)cc23)C(=O)N[C@@H](Cc2c[nH]c3ccccc23)C(=O)N[C@@H]([C@H](C)O)C(=O)N(C)[C@H](C(=O)N(C)[C@@H](Cc2ccc(F)cc2)C(=O)N[C@@H](CCCCNC(=O)N2CCN(CC(=O)O)CC2)C(=O)N[C@H](CCCCNC(=O)CN2CCN(CC(=O)O)CCN(CC(=O)O)CCN(CC(=O)O)CC2)C(N)=O)CNC(=O)CC[C@H](NC(C)=O)C(=O)N[C@@H](Cc2ccc(O)cc2)C(=O)N[C@@H](CO)C(=O)N(C)[C@@H](CCc2ccccc2)C(=O)N1C [Example C23]
2 | 243 nM | 172 nM | – | 117 nM | – | 75 nM | – | CC(=O)N[C@H]1CC(=O)NCC[C@@H](C(=O)N(C)[C@@H](Cc2ccc(F)cc2)C(N)=O)N(C)C(=O)[C@H](C2CC2)NC(=O)[C@H](Cc2c[nH]c3ccccc23)NC(=O)[C@H](Cc2c[nH]c3ccc(O)cc23)NC(=O)[C@H](CO)N(C)C(=O)[C@H](CCc2ccccc2)N(C)C(=O)[C@H](CO)NC(=O)[C@H](Cc2ccc(O)cc2)NC1=O [Example A9, (2S,5S,8S,11S,14S,17S,20S,23S,29S)-17-((1H-indol-3-yl)methyl)-29-acetamido-N-((S)-1-amino-3-(4-fluorophenyl)-1-oxopropan-2-yl)-20-cyclopropyl-14-((5-hydroxy-1H-indol-3-yl)methyl)-2-(4-hydroxybenzyl)-5,11-bis(hydroxymethyl)-N,7,10,22-tetramethyl-3,6,9,12,15,18,21,27,30-nonaoxo-8-phenethyl-1,4,7,10,13,16,19,22,26-nonaazacyclotriacontane-23-carboxamide] (Ac-DYS[NMehPhe][NMeS][Trp(5-OH)]W[Gly(cPr)][NMeDab][NMePhe(4-F)]-NH2; lactam 1-9)
3 | 66 nM | 122 nM | – | 37 nM | – | 53 nM | – | CN1C(=O)[C@H](CO)NC(=O)[C@H](Cc2ccc(O)cc2)NC(=O)[C@@H](N)CCC(=O)NC[C@@H](C(=O)N(C)[C@@H](Cc2ccc(F)cc2)C(N)=O)N(C)C(=O)[C@H](C2CC2)NC(=O)[C@H](Cc2c[nH]c3ccccc23)NC(=O)[C@H](Cc2c[nH]c3ccc(O)cc23)NC(=O)[C@H](CO)N(C)C(=O)[C@@H]1CCc1ccccc1 [Example A35, (3S,6S,9S,12S,15S,18S,21S,24S,27S)-9-((1H-indol-3-yl)methyl)-27-amino-N—((S)-1-amino-3-(4-fluorophenyl)-1-oxopropan-2-yl)-6-cyclopropyl-12-((5-hydroxy-1H-indol-3-yl)methyl)-24-(4-hydroxybenzyl)-15,21-bis(hydroxymethyl)-N,4,16,19-tetramethyl-5,8,11,14,17,20,23,26,30-nonaoxo-18-phenethyl-1,4,7,10,13,16,19,22,25-nonaazacyclotriacontane-3-carboxamide TFA 5 salt]
4 | 413 nM | 755 nM | – | 443 nM | – | 229 nM | – | CC(=O)NCCCC[C@H]1C(=O)N[C@@H](Cc2c[nH]c3ccc(O)cc23)C(=O)N[C@@H](Cc2c[nH]c3ccccc23)C(=O)N[C@@H](C2CC2)C(=O)N(C)[C@H](C(=O)N(C)[C@@H](Cc2ccc(F)cc2)C(N)=O)CCSSC[C@H](N)C(=O)N[C@@H](Cc2ccc(O)cc2)C(=O)N[C@@H](CO)C(=O)N(C)[C@@H](CCc2ccccc2)C(=O)N1C [Example A56, (5S,8S,11S,14S,17S,20S,23S,26S,29R)-11-((1H-indol-3-yl)methyl)-17-(4-acetamidobutyl)-29-amino-N-((S)-1-amino-3-(4-fluorophenyl)-1-oxopropan-2-yl)-8-cyclopropyl-14-((5-hydroxy-1/-indol-3-y1)methyl)-26-(4-hydroxybenzyl)-23-(hydroxymethyl)-N,6,18,21-tetramethyl-7,10,13,16,19,22,25,28-octaoxo-20-phenethyl-1,2-dithia-6,9,12,15,18,21,24,27-octaazacyclotriacontane-5-carboxamide TFA salt] (H-CYS[NMehPhe][NMeK](Ac)[Trp(5-OH)]W[Gly(cPr)][NMehCys][NMePhe(4-F)]-NH2; disulfide 1-9)
5 | 2 nM | 6.1 nM | 3.7 nM | 0.6 nM | – | – | 0.9 nM | CC(=O)NCCCC[C@H]1C(=O)N[C@@H](Cc2c[nH]c3ccc(O)cc23)C(=O)N[C@@H](Cc2c[nH]c3ccccc23)C(=O)N[C@@H]([C@H](C)O)C(=O)N(C)[C@H](C(=O)N(C)[C@@H](Cc2ccc(F)cc2)C(=O)N[C@@H](CCCCNC(=O)CN2CCN(CC(=O)O)CCN(CC(=O)O)CCN(CC(=O)O)CC2)C(N)=O)CNC(=O)CC[C@H](NC(C)=O)C(=O)N[C@@H](Cc2ccc(O)cc2)C(=O)N[C@@H](CO)C(=O)N(C)[C@@H](CCc2ccccc2)C(=O)N1C [Example C25]
6 | 210 nM | 627 nM | – | 248 nM | – | 391 nM | – | CC(=O)N[C@H]1CCC(=O)NC[C@@H](C(=O)N(C)[C@@H](Cc2ccc(F)cc2)C(N)=O)N(C)C(=O)[C@H](C2CC2)NC(=O)[C@H](Cc2c[nH]c3ccccc23)NC(=O)[C@H](Cc2c[nH]c3ccc(O)cc23)NC(=O)[C@H](CO)N(C)C(=O)[C@H](CCc2ccccc2)N(C)C(=O)[C@H](CCCC(=O)O)NC(=O)[C@H](Cc2ccc(O)cc2)NC1=O [Example A27, 4-((2S,5S,8S,11S,14S,17S,20S,23S,29S)-17-((1H-indol-3-yl)methyl)-29-acetamido-23-(((S)-1-amino-3-(4-fluorophenyl)-1-oxopropan-2-yl)(methyl)carbamoyl)-20-cyclopropyl-14-((5-hydroxy-1H-indol-3-yl)methyl)-2-(4-hydroxybenzyl)-11-(hydroxymethyl)-7,10,22-trimethyl-3,6,9,12,15,18,21,26,30-nonaoxo-8-phenethyl-1,4,7,10,13,16,19,22,25-nonaazacyclotriacontan-5-yl)butanoic acid] (Ac-EY[Aad][NMehPhe][NMeS][Trp(5-OH)]W[Gly(cPr)][NMeDap][NMePhe(4-F)]-NH2; lactam 1-9)
7 | 0.6 nM | 0.8 nM | – | 0.5 nM | – | 0.4 nM | – | CC(=O)NCCCC[C@H]1C(=O)N[C@@H](Cc2c[nH]c3ccc(O)cc23)C(=O)N[C@@H](Cc2c[nH]c3ccccc23)C(=O)N[C@@H](C2CC2)C(=O)N(C)[C@H](C(=O)N(C)[C@@H](Cc2ccc(F)cc2)C(N)=O)CNC(=O)CCC[C@H](NC(C)=O)C(=O)N[C@@H](Cc2ccc(O)cc2)C(=O)N[C@@H](CO)C(=O)N(C)[C@@H](CCc2ccccc2)C(=O)N1C [Example A5, (3S,6S,9S,12S,15S,18S,21S,24S,27S)-9-((1H-indol-3-yl)methyl)-27-acetamido-15-(4-acetamidobutyl)-N-((S)-1-amino-3-(4-fluorophenyl)-1-oxopropan-2-yl)-6-cyclopropyl-12-((5-hydroxy-1H-indol-3-yl)methyl)-24-(4-hydroxybenzyl)-21-(hydroxymethyl)-N,4,16,19-tetramethyl-5,8,11,14,17,20,23,26,31-nonaoxo-18-phenethyl-1,4,7,10,13,16,19,22,25-nonaazacyclohentriacontane-3-carboxamide] (Ac-[Aad]YS[NMehPhe][NMeK](Ac)[Trp(5-OH)]W[Gly(cPr)][NMeDap][NMePhe(4-F)]-NH2; lactam 1-9)
